A short description of this test: Multicentre, double-blind, placebo-controlled clinical trial of glycaemic and renal effects of linagliptin in patients with type 2 diabetes and albuminuria. It counts as in vivo, human. The protocol:
A multicentre, double-blind, placebo-controlled clinical trial investigates glycaemic and renal effects of linagliptin in patients with type 2 diabetes, album inuria and estimated GFR ≥30 ml/min/1.73 m2 (with or without renal function impairment).
A total of 360 patients with type 2 diabetes (HbA1c 6.5-10%) and persistent albuminuria (urinary albumin-to-creatinine ratio [UACR] 30-3000 mg/gCr; i.e. micro- or macro-albuminuria) despite stable background (standard-of-care) of single renin-angiotensin system blockade (ARB or ACE inhibitor) are randomised to either linagliptin 5 mg (n=182) or placebo (n=178) for 24 weeks. Primary glycaemic and key secondary renal surrogate endpoints are HbA1c and UACR change from baseline over 24 weeks, respectively.

Take `CC#CCn1c(N2CCC[C@@H](N)C2)nc2c1c(=O)n(Cc1nc(C)c3ccccc3n1)c(=O)n2C` [linagliptin, 1-[(4-methyl-quinazolin-2-yl)methyl]-3-methyl-7-(2-butyn-1-yl)-8-(3-(R)-amino-piperidin-1-yl)-xanthine]: the “placebo-adjusted gMean for time-weighted average of % change in UCAR from baseline” value (over 24 weeks, linagliptin 5 mg vs placebo, 95% CI −15.0, 3.0, NS) was −6.0%. In addition, where the note is “over 24 weeks, linagliptin 5 mg, 95% CI −16.8, −4.7”, the “gMean for time-weighted average of % change from baseline in UACR” value is listed as −11.0%. In addition, the “difference in the changes from baseline vs. placebo in urinary albumin to creatinine ratio (UACR), subgroup on a background of metformin” value (post hoc exploratory subgroup analysis, linagliptin on metformin background (and CKD3, eGFR 30-60) compared to patients without metformin) is “numerically larger difference”. Moreover, the “placebo-adjusted mean HbA1c change from baseline” value (week 24, linagliptin 5 mg vs placebo, 95% CI −0.78, −0.43, p<0.0001) is listed as −0.60%.

The record behind these values is patent publication US20190060320A1, “MEDICAL USE OF PHARMACEUTICAL COMBINATION OR COMPOSITION” (Boehringer Ingelheim International GmbH, priority 2016, published 2019).
